In ChEMBL document CHEMBL2311441 one finds ΔTm data, which are given here for two molecules.

In the experiment the target is T1, NAD-dependent protein deacetylase sirtuin-1 (Homo sapiens) (UniProt Q96EB6).
T1 sequence (whole entry): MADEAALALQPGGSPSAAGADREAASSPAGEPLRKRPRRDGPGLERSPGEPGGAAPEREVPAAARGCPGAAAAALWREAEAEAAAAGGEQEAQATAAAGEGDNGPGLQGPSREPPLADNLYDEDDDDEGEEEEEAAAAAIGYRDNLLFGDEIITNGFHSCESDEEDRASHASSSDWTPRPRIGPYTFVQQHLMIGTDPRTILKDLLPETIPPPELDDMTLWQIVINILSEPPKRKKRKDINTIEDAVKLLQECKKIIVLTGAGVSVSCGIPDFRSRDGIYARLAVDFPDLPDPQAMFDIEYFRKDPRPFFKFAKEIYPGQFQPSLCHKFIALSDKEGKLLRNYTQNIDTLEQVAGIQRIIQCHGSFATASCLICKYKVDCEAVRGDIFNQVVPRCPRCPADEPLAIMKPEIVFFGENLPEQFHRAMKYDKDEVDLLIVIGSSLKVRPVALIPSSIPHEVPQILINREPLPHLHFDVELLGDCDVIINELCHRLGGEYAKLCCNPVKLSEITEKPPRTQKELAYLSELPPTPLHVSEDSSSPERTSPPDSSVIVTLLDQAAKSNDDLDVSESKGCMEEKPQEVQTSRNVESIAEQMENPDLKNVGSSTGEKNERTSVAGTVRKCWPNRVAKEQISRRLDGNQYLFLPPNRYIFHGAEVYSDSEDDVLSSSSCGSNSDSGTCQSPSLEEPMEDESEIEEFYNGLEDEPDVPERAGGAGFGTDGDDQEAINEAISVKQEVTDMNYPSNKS
As to conditions: Sf9.

In general, ΔTm refers to the change in melting temperature against a reference sample. Take `NC(=O)[C@@H]1CCCCc2c1[nH]c1ccc(Cl)cc21`: the ΔTm amounted to 10 °C.

For `NC(=O)[C@@H]1CCCc2c1[nH]c1ccc(Cl)cc21`, the thermal shift (ΔTm) is 10 °C.
